Reference: ChEMBL document CHEMBL6182944, “Substrate Specificity of the Organic Cation Transporters MATE1 and MATE2K and Functional Overlap with OCT1 and OCT2” (J Med Chem, 2025)

Assays:
MATE2-K = target: T1, MATE2-K (Homo sapiens, UniProt Q86VL8); assay: in vitro
T1 sequence (Q86VL8 whole entry): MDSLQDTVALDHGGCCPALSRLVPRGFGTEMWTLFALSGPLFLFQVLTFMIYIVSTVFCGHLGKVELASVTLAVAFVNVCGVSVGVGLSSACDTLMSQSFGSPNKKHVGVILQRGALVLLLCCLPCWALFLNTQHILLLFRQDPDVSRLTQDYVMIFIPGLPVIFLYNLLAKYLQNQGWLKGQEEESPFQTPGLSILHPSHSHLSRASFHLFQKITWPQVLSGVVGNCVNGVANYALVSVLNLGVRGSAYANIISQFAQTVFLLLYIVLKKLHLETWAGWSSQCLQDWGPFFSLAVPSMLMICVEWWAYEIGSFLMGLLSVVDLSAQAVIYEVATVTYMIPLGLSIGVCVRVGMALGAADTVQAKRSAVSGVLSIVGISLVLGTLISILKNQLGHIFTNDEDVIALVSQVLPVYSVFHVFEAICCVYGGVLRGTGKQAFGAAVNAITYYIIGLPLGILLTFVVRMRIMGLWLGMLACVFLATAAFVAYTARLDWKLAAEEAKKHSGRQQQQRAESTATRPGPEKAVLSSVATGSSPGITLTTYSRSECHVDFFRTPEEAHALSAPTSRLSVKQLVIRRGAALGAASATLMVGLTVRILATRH

MATE1 = target: T2, MATE1 (Homo sapiens, UniProt Q96FL8); assay: in vitro
T2 sequence (Q96FL8 whole entry): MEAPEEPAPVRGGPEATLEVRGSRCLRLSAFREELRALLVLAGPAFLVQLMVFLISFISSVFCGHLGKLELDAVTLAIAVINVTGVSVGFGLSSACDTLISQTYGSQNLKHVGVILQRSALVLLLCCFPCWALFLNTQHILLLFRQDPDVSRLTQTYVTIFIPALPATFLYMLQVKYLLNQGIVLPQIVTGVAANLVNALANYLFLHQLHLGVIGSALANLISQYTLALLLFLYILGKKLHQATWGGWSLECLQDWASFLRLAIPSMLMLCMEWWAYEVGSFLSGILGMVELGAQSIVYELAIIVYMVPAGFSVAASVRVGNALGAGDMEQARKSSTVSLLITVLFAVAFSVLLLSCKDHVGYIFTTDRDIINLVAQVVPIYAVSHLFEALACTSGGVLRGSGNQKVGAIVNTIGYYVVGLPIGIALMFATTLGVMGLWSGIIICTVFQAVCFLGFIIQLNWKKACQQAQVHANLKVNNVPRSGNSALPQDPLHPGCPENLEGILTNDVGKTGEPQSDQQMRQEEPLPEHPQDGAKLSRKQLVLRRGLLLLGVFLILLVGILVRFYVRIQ

[1] = HEK293 cells expressing MATE2-K

| Structure (SMILES) | uptake ratio at 1 min, 2.5 µM (MATE2-K; [1]) | uptake ratio at 1 min, 2.5 µM (MATE1; HEK293 cells expressing MATE1) | uptake ratio at 1 min, 2.5 µM (MATE2-K; hek293) | uptake ratio at 1 min, 2.5 µM (MATE1; hek293) |
| --- | --- | --- | --- | --- |
| COc1cccc2c1C(=O)c1c(O)c3c(c(O)c1C2=O)C[C@@](O)(C(C)=O)C[C@@H]3O[C@H]1C[C@H](N)[C@H](O)[C@H](C)O1 [DAUNORUBICIN] | < 2 | < 2 | – | – |
| Nc1ncn([C@H]2C[C@H](O)[C@@H](CO)O2)c(=O)n1 [DECITABINE] | < 2 | < 2 | – | – |
| COc1cc2c(cc1OC)-c1c(C)c3ccc(OC)c(OC)c3c[n+]1CC2 [DEHYDROCORYDALINE] | > 2 | > 2 | – | – |
| CNCCc1ccc(O)c(O)c1 [DEOXIEPINEPHRINE] | > 2 | > 2 | – | – |
| CC(C)N(CCC(C(N)=O)(c1ccccc1)c1ccccn1)C(C)C (stereo not drawn) [DISOPYRAMIDE] | < 2 | < 2 | – | – |
| CC[N+](C)(C)c1cccc(O)c1 [EDROPHONIUM] | > 2 | > 2 | – | – |
| COC(=O)CCc1ccc(OCC(O)CNC(C)C)cc1 (stereo not drawn) [ESMOLOL] | < 2 | < 2 | – | – |
| CCNCC(O)c1cccc(O)c1 (stereo not drawn) [ETILEFRINE] | > 2 | > 2 | – | – |
| O=S(=O)(c1cccc2cnccc12)N1CCCNCC1 [FASUDIL] | > 2 | < 2 | – | – |
| CC(C)(C(=O)O)c1ccc(C(O)CCCN2CCC(C(O)(c3ccccc3)c3ccccc3)CC2)cc1 (stereo not drawn) [FEXOFENADINE] | < 2 | < 2 | – | – |
| OCCN1CCN(CCCN2c3ccccc3Sc3ccc(C(F)(F)F)cc32)CC1 [FLUPHENAZINE] | < 2 | < 2 | – | – |
| NCCCC(=O)O [GAMMA-AMINOBUTYRIC ACID] | < 2 | < 2 | – | – |
| Nc1ccn([C@@H]2O[C@H](CO)[C@@H](O)C2(F)F)c(=O)n1 [GEMCITABINE] | < 2 | < 2 | – | – |
| Oc1ccc(CC2NCCc3cc(O)c(O)cc32)cc1 (stereo not drawn) [HIGENAMINE] | > 2 | > 2 | – | – |
| NCCc1c[nH]cn1 [HISTAMINE] | – | – | < 2 | > 2 |
| CCCCCCCN(CC)CCCC(O)c1ccc(NS(C)(=O)=O)cc1 (stereo not drawn) [IBUTILIDE] | < 2 | < 2 | – | – |
| N=C(N)NCc1cccc(I)c1 [IOBENGUANE] | > 2 | > 2 | – | – |
| CCC(NC(C)C)C(O)c1ccc(O)c(O)c1 (stereo not drawn) [ISOETHARINE] | > 2 | > 2 | – | – |
| CC(C)NCC(O)c1ccc(O)c(O)c1 (stereo not drawn) [ISOPROTERENOL] | > 2 | > 2 | – | – |
| O=C(C[S+]([O-])Cc1ccco1)NC/C=C\COc1cc(CN2CCCCC2)ccn1 (stereo not drawn) [LAFUTIDINE] | < 2 | < 2 | – | – |
| C[N+](C)(C)C[C@H](O)CC(=O)[O-] [LEVOCARNITINE] | < 2 | < 2 | – | – |
| C[N+]1(C)CCCC(OC(=O)C(O)(c2ccccc2)c2ccccc2)C1 (stereo not drawn) [MEPENZOLATE BROMIDE] | > 2 | > 2 | – | – |
| CC(C)NCC(O)c1cc(O)cc(O)c1 (stereo not drawn) [METAPROTERENOL] | > 2 | > 2 | – | – |
| Clc1ccc(COC(Cn2ccnc2)c2ccc(Cl)cc2Cl)c(Cl)c1 (stereo not drawn) [MICONAZOLE] | < 2 | < 2 | – | – |
| CNC(C)Cc1ccc2c(c1)OCO2 (stereo not drawn) [MIDOMAFETAMINE] | < 2 | < 2 | – | – |

| Structure (SMILES) | uptake ratio at 1 min, 2.5 µM (MATE2-K; [1]) | uptake ratio at 1 min, 2.5 µM (MATE1; HEK293 cells expressing MATE1) | uptake ratio at 1 min, 2.5 µM (MATE2-K; hek293) | uptake ratio at 1 min, 2.5 µM (MATE1; hek293) |
| --- | --- | --- | --- | --- |
| Nc1nc(CC(=O)Nc2ccc(CCNC[C@H](O)c3ccccc3)cc2)cs1 [MIRABEGRON] | > 2 | > 2 | – | – |
| Cc1ncc(C[n+]2csc(CCOP(=O)(O)O)c2C)c(N)n1 [MONOPHOSPHOTHIAMINE] | < 2 | < 2 | – | – |
| CC(C)(C)NCC(O)COc1cccc2c1CC(O)C(O)C2 (stereo not drawn) [NADOLOL] | > 2 | > 2 | – | – |
| OC(CNCC(O)C1CCc2cc(F)ccc2O1)C1CCc2cc(F)ccc2O1 (stereo not drawn) [NEBIVOLOL] | < 2 | < 2 | – | – |
| O=C(O)c1cccnc1 [NIACIN] | – | – | < 2 | < 2 |
| CNC(=O)c1cccnc1 [NICOTINYL METHYLAMIDE] | > 2 | > 2 | – | – |
| CNC(=C[N+](=O)[O-])NCCSCc1csc(CN(C)C)n1 [NIZATIDINE] | > 2 | > 2 | – | – |
| NCC(O)c1cccc(O)c1 (stereo not drawn) [NORFENEFRINE] | < 2 | > 2 | – | – |
| COc1cc(C(O)CN)ccc1O (stereo not drawn) [NORMETANEPHRINE] | < 2 | < 2 | – | – |
| NCC(O)c1ccc(O)cc1 (stereo not drawn) [OCTOPAMINE] | < 2 | > 2 | – | – |
| CC[N+](C)(CC)CCOC(=O)C(O)(c1ccccc1)C1CCCCC1 (stereo not drawn) [OXYPHENONIUM] | > 2 | > 2 | – | – |
| CC(C)(CO)[C@@H](O)C(=O)NCCC(=O)O [PANTOTHENIC ACID] | < 2 | < 2 | – | – |
| NCCc1ccccc1 [PHENETHYLAMINE] | < 2 | < 2 | – | – |
| CCC1(c2ccccc2)C(=O)NC(=O)NC1=O [PHENOBARBITAL] | < 2 | < 2 | – | – |
| CC[C@@H]1C(=O)OC[C@@H]1Cc1cncn1C [PILOCARPINE] | < 2 | < 2 | – | – |
| CC(C)NCC(O)COc1cccc2[nH]ccc12 (stereo not drawn) [PINDOLOL] | < 2 | > 2 | – | – |
| NC(=O)C1(N2CCCCC2)CCN(CCCC(=O)c2ccc(F)cc2)CC1 [PIPAMPERONE] | < 2 | < 2 | – | – |
| CN1CCN(CC(=O)N2c3ccccc3C(=O)Nc3cccnc32)CC1 [PIRENZEPINE] | < 2 | > 2 | – | – |
| CC(=O)Nc1ccc(OCC(O)CNC(C)C)cc1 (stereo not drawn) [PRACTOLOL] | – | – | > 2 | > 2 |
| [H]/N=C(\N/C(=N/[H])Nc1ccc(Cl)cc1)NC(C)C [PROGUANIL] | > 2 | > 2 | – | – |
| CC(C)[N+](C)(CCOC(=O)C1c2ccccc2Oc2ccccc21)C(C)C [PROPANTHELINE] | > 2 | > 2 | – | – |
| NCCCCN [PUTRESCINE] | – | – | < 2 | < 2 |
| CNC(=C[N+](=O)[O-])NCCSCc1ccc(CN(C)C)o1 [RANITIDINE] | – | – | > 2 | > 2 |
| CN(C)CCc1c[nH]c2ccc(Cn3cncn3)cc12 [RIZATRIPTAN] | > 2 | > 2 | – | – |
